The record followed here is US20130109581A1, “POSITIVELY CHARGED SPECIES AS BINDING REAGENTS IN THE SEPARATION OF PROTEIN AGGREGATES FROM MONOMERS” (priority 2009, published 2013).

What all share (assay type): binding
For assay [1], the target named is T1, oligomeric beta amyloid 1-42 (globulomer) (Homo sapiens, UniProt P05067).
T1 construct: beta amyloid (1-42) was monomerized with incubation in hexafluoroisopropanol
In words: Misfolded Protein Assay: capture of globulomer spiked into CSF (Example 2). As for the experimental part: To assess the ability of these reagents to capture protein aggregates, the previously described Misfolded Protein Assay or MPA (Lau et al., 2007, PNAS, 104: 11551) was used (FIG. 3). In this assay, the capture reagent of interest is attached to beads which are incubated with a sample of interest containing a mixture of normal monomeric and aggregated proteins to allow for capture and then washed to remove unbound material. After this enrichment step, an elution buffer is used to dissociate the captured material from the beads as well as to denature any aggregates. The eluted material is then applied to a sandwich ELISA that is specific for the protein of interest. Strong aggregate-binding reagents acting as effective capture reagents show a high signal from the sample containing a mixture of monomers and aggregates, but not from the control sample, which contains only physiologic levels of monomeric protein.
Beads displaying carboxylic acids were treated with EDC and BMPH to create maleimide-displaying beads, to which thiolated peptides (or other thiolated organic molecules) were added through a Michael addition reaction. Dynal M270 magnetized beads (30 mg/mL bead) displaying carboxylic acids were vortexed and placed into a 15 ml falcon tube. The tube was placed into a magnet, and the supernatant removed. The beads were washed 2 times with 0.1 M MES buffer, pH 5, and then the washing buffer was removed. The coupling solution (33 mM BMPH, 130 mM EDC in MES buffer) was added, and the tube was rocked for 30 minutes at room temperature. After washing in 1×MES, 1× Tris, pH 7.5, the beads were quenched with Tris buffer (50 mM Tris buffer, pH 7.5) for 15 minutes. The beads were then washed 2 times in phosphate buffer and added to 5 mM thiolated ligand in degassed phosphate. The beads were rotated for 21 hours, then washed in 0.1 M phosphate buffer, pH 7, 1×PBS, and stored.
To prepare the globulomer, beta amyloid (1-42) was monomerized with incubation in hexafluoroisopropanol. The hexafluoroisopropanol was removed by vacuum centrifugation. DMSO, PBS, and 2% SDS were then added to the sample. The sample was vortexed and sonicated and then incubated at 37° C. After 6 hours, the sample was diluted with water, vortexed, and incubated at 37° C. for an additional 19 hours. The sample was ultracentrifuged at 135000×g for 1 hour at 4° C., and the supernatant retained. The globulomers were spiked into CSF for the assay.
Aliquots of beads conjugated to various reagents were added to wells of a 96-well plate. Globulomer-spiked CSF in a Tris buffer was added to each well, and the plates were incubated for 1 hour at 37° C. with shaking. For the negative control, normal CSF was used, which is considered to contain only monomers of beta amyloid. The beads were washed with TBST wash buffer, and bound materials were eluted with a denaturing solution (typically 0.1-0.15 N NaOH). A reconditioning buffer was added to the eluate prior to beta amyloid detection via a beta amyloid (1-42) specific sandwich ELISA.
In order to determine the amount of ligand loading, amine quanitation was used. Aliquots of beads were placed in a magnet, and the supernatant removed. 80% phenol in ethanol, 0.2 mM KCN in pyridine/water, and 6% ninhydrin in ethanol was added to each tube. The aliquots were vortexed and heated for 7 minutes at 100° C. After cooling to room temperature, 60% ethanol was added. The tubes were placed in a magnet, and the absorbance of the supernatant at 570 nm was determined. The loading of the beads was determined according to Beer's law, using the extinction coefficient of 15000 M-1 cm-1.
Beads (3 ul or 15 ul) were added to samples containing 0.5 ng/mL globulomer spiked into CSF. […] For PSR1, this limit was ˜5 nmol ligand/mg bead for binding preferentially to globulomer. […]

The target of the next assay is T2, Aβ42 Monomer (Homo sapiens, UniProt P05067).
T2 construct: The Ab42 aggregates were prepared as previously described
T2 sequence (P05067 672-713 limits assumed): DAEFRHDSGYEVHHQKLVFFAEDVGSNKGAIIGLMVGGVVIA
In words: Misfolded Protein Assay, Limit of Detection in CSF: monomer. The following applies: spiked into CSF; LoD = 2× over background. The procedure:
(§1) The Ab42 aggregates were prepared as previously described: fibrils were prepared per Stine et al (JBC 2003, 278, p11612), globulomers were prepared per Barghorn et al (J Neurology 2005 95 p834), ADDLs were prepared per Lambert et al (PNAS 1998, 95 p6448), and ASPDs were prepared per Noguchi et al (JBC 2009 284 p32895). Normal CSF was pooled from clinically characterized non-demented patient CSF samples. AD CSF was pooled from clinically-characterized AD patient samples. Alzheimer's Disease Brain Homogenate (ADBH) was prepared by sonication of clinically diagnosed AD patient brain samples in 0.2M.sucrose (1:10 w/v).
For the capture assay (Misfolded Protein Assay), aliquots of the beads (30 ul) were added to wells of a 96 well plate, followed by 125 ul of sample in 80:20 CSF:TBSTT. The plate was sealed and incubated for 1 h at 37 C with shaking. The plate was washed with TBST and the residual buffer removed. A denaturing solution (0.1 N NaOH) was added to each well and the plate heated to 80 C. for 30 min with shaking. After cooling the plate to RT, a neutralizing buffer (0.12 M NaH2PO3-0.4% TW20,) was added and the plate shaken briefly at RT. The assay was analyzed using the triplex Mesoscale Discovery ELISA kit for Aβ. The Aβ in the samples eluted from the beads were detected per the manufacturer's protocol. […]

Another assay has as its target T3, Aβ42 Globulomer (Homo sapiens, UniProt P05067).
T3 construct: beta amyloid (1-42) was monomerized with incubation in hexafluoroisopropanol
In words: Misfolded Protein Assay, LoD and capture in CSF: globulomer. The following applies: for LoD: spiked into CSF. As for the experimental part: as §1
For the capture assay (Misfolded Protein Assay), aliquots of the beads (30 ul) were added to wells of a 96 well plate, followed by 125 ul of sample in 80:20 CSF:TBSTT. The plate was sealed and incubated for 1 h at 37 C with shaking. The plate was washed with TBST and the residual buffer removed. A denaturing solution (0.1 N NaOH) was added to each well and the plate heated to 80 C. for 30 min with shaking. After cooling the plate to RT, a neutralizing buffer (0.12 M NaH2PO3-0.4% TW20,) was added and the plate shaken briefly at RT. The assay was analyzed using the triplex Mesoscale Discovery ELISA kit for Aβ. The Aβ in the samples eluted from the beads were detected per the manufacturer's protocol.
For the Limit of Detection (LoD) studies, serial dilutions of each aggregate were spiked into CSF and were assayed per the protocol described above. The LoD was defined as 2× over background levels.
This pattern minors the capture selectivity observed when these species are tested with 3 ul of PSR1 beads and 1 ng/mL of aggregate.

Where “and” joins values, the source holds several entries; their conditions need not be identical. Equal values may be shown once.

T3 sequence (P05067 672-713 limits assumed): as above
T1 sequence (P05067 672-713 limits assumed): as above

With Nab-Nab-Nab-Nbn-Nab-Nbn [PSR1], the “minimum density required for oligomer capture” value in assay [1] (0.5 ng/mL globulomer in CSF, assuming all amines protonated at pH 7.4) is “roughly 6000 nmol positive charges/m^2”; in assay [1] (0.5 ng/mL globulomer in CSF, from 2-5 m^2 surface area per gram bead), “approximately 1500 nmol ligand/m^2”; in assay [1] (0.5 ng/mL globulomer spiked into CSF, 3 ul or 15 ul beads) it was approximately 5 nmol ligand/mg bead. Moreover, in assay [1] (globulomer-spiked CSF vs normal CSF, reagent on Dynal M270 beads), the “capture of oligomers (relative light units from the Abeta ELISA)” value is given as “capable of enriching oligomers”. In addition, the “sensitivity and specificity for globulomers” value in assay [1] (native vs denatured globulomer in CSF, directly conjugated beads vs streptavidin beads with biotin-PSR1) was “higher sensitivity and specificity for globulomers”. Moreover, the LoD was approximately 1000 pg/mL on Aβ42 Monomer; approximately 140 amol at Aβ42 Globulomer; ~75 pg/mL and 75 pg/mL on Aβ42 Globulomer (LoD = 2× over background). Besides, the “capture of Globulomer” value at Aβ42 Globulomer (3 ul of beads and 1 ng/mL of aggregate) is reported as 1267.
